Numbered stars: 1 amine (or outer) side, 2 acyl side, 3 side chain; on linkers, the order of the positions; unused ones are H or OH. Square brackets hold non-standard residues; d marks the D form. Side chains are listed from the residue outwards. Peptide text beside a SMILES is read from it. * marks the point of attachment. C18 diacid = O=C(O)CCCCCCCCCCCCCCCCC(=O)*; γGlu = O=C(O)[C@H](CCC(=O)[*:2])N[*:1]; AEEA = NCCOCCOCC(=O)O; Aib = CC(C)(N)C(=O)O

The target of assay [1] is T1, gastric inhibitory peptide receptor (GIPR) (Homo sapiens, UniProt P48546).
T1 sequence (P48546 22-466): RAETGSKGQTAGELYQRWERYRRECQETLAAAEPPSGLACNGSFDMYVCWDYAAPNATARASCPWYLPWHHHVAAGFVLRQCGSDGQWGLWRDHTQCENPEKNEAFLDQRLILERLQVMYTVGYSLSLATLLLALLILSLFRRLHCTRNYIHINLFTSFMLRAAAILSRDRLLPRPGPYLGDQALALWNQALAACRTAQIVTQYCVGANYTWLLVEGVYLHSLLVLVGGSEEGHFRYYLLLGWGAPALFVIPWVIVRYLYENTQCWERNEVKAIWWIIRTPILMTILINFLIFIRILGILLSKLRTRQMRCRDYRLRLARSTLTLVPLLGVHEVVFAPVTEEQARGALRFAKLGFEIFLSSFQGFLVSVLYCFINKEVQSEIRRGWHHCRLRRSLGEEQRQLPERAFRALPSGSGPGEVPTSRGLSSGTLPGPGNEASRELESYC
Put plainly: cAMP pharmacological functional assay in presence of casein, hGIPR. As to conditions: HEK293 cells expressing hGIPR, 0.1% Casein, geometric mean; read-out: hGIPR cAMP Rel EC50 nM (SEM, n). It is filed as cell-based.

For assay [2], the target named is T2, human GIP receptor (Homo sapiens, UniProt P48546).
T2 construct: expressed in transfected cells; crude membranes
T2 sequence (P48546 22-466): T1 sequence (P48546 22-466)
As to the kind of experiment: [125I]-GIP binding (SPA), human GIP receptor. As to conditions: read-out: hGIPR Ki, nM (SEM, n).

For assay [3], the target named is human GLP-1R (Homo sapiens, UniProt P43220). Put plainly: [125I]-GLP-1 binding (SPA), human GLP-1 receptor. On the set-up: expressed in transfected cells; crude membranes. Particulars: read-out: hGLP1R Ki, (nM) (SEM, n). An outline of the steps: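 Crude-membrane binding assay; one membrane prep included 1 mM MgCl2 and 25 units/ml DNAse I during lysis. Assay buffer at pH 7.4 contains 0.1% (w/v) bacitracin and 0.003% (w/v) TWEEN-20. Ki is reported as geometric mean.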
Chain of human GLP-1R (P43220 24-463): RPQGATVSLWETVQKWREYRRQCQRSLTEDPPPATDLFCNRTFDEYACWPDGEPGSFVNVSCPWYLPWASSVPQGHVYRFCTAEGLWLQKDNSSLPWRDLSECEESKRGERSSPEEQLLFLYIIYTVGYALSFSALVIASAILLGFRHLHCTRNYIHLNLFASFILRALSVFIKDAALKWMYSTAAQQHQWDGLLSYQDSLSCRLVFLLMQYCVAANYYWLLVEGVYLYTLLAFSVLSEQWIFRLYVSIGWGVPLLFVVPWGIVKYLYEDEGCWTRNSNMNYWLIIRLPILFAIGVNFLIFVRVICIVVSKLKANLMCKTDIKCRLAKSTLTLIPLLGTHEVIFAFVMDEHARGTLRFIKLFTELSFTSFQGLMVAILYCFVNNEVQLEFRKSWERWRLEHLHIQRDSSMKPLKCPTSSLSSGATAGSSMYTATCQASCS

In assay [4] the target is T3, human Gcg receptor (Homo sapiens, UniProt P47871).
T3 construct: expressed in transfected cells; crude membranes
T3 sequence (P47871 26-477): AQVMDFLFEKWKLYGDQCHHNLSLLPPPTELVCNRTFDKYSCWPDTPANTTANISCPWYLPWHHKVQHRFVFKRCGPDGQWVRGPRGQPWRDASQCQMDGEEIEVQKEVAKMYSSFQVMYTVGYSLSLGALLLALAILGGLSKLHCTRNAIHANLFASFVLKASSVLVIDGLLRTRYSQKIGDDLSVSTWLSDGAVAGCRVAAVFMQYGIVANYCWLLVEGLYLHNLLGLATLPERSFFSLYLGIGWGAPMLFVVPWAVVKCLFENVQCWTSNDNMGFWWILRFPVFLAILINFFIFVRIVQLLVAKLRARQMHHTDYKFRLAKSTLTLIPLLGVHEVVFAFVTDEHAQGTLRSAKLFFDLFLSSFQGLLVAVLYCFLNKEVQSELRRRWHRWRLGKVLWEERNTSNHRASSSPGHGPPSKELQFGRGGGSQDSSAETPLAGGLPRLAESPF
Put plainly: [125I]-Glucagon binding (SPA), human Gcg receptor. As to conditions: read-out: hGLcgR Ki, nM (SEM, n). A digest of the protocol: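 Cell pellets were lysed in hypotonic Tris buffer, pH 7.5, homogenized, and spun at low then high speed to give crude membranes. Ki was derived from the fitted IC50.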

For assay [5], the target named is human GLP-1 receptor (GLP-1R) (Homo sapiens, UniProt P43220). Put plainly: cAMP pharmacological functional assay in presence of casein, hGLP-1R. It counts as cell-based. Particulars: HEK293 cells expressing hGLP-1R, 0.1% Casein, geometric mean; read-out: hGLP1R cAMP Rel EC50 nM (SEM, n).
Chain of human GLP-1 receptor (GLP-1R) (P43220 24-463): as the sequence (P43220 24-463) above

For the compound `CC[C@H](C)[C@H](NC(=O)[C@H](CC(C)C)NC(=O)[C@H](Cc1ccc(O)cc1)NC(=O)[C@H](CCC(=O)O)NC(=O)[C@@H](NC(=O)[C@H](Cc1ccccc1)NC(=O)[C@H](C)NC(=O)C(C)(C)NC(=O)[C@H](CCC(N)=O)NC(=O)[C@H](C)NC(=O)[C@H](CCCCNC(=O)COCCOCCNC(=O)COCCOCCNC(=O)CC[C@H](NC(=O)CCCCCCCCCCCCCCCCC(=O)O)C(=O)O)NC(=O)[C@H](CCC(=O)O)NC(=O)[C@H](CC(=O)O)NC(=O)[C@H](CC(C)C)NC(=O)[C@H](CC(C)C)NC(=O)[C@@H](NC(=O)[C@H](CO)NC(=O)[C@H](Cc1ccc(O)cc1)NC(=O)[C@H](CC(=O)O)NC(=O)[C@H](CO)NC(=O)[C@@H](NC(=O)[C@H](Cc1ccccc1)NC(=O)[C@@H](NC(=O)CNC(=O)[C@H](CCC(=O)O)NC(=O)C(C)(C)NC(=O)[C@@H](N)Cc1ccc(O)cc1)[C@@H](C)O)[C@@H](C)O)[C@@H](C)CC)[C@@H](C)CC)C(=O)N[C@@H](CCC(=O)O)C(=O)NCC(=O)NCC(N)=O` [Example 269] (H-Y[Aib]EGTFTSDYSILLDEK([AEEA-AEEA-γGlu-C18 diacid])AQ[Aib]AFIEYLIEGG-NH2), the EC50 (commonly the concentration that produces a half-maximal response) in assay [1] worked out at 0.257 nM; in assay [5], 0.0595 nM. In addition, the Ki (commonly the equilibrium dissociation constant of an inhibitor or competing ligand from its target) in assay [2] is 0.152 nM; in assay [3] it was 7.1 nM; in assay [4], greater than 1100 nM.
In the case of `CC[C@H](C)[C@H](NC(=O)[C@H](CC(C)C)NC(=O)[C@H](Cc1ccc(O)cc1)NC(=O)[C@H](CCC(=O)O)NC(=O)[C@@H](NC(=O)[C@H](Cc1ccccc1)NC(=O)[C@H](CCC(=O)O)NC(=O)C(C)(C)NC(=O)[C@H](CCC(N)=O)NC(=O)[C@H](C)NC(=O)[C@H](CCCCNC(=O)COCCOCCNC(=O)COCCOCCNC(=O)CC[C@H](NC(=O)CCCCCCCCCCCCCCCCC(=O)O)C(=O)O)NC(=O)[C@H](CCCCN)NC(=O)[C@H](CC(=O)O)NC(=O)[C@H](CC(C)C)NC(=O)[C@H](CC(C)C)NC(=O)[C@@H](NC(=O)[C@H](CO)NC(=O)[C@H](Cc1ccc(O)cc1)NC(=O)[C@H](CC(=O)O)NC(=O)[C@H](CO)NC(=O)[C@@H](NC(=O)[C@H](Cc1ccccc1)NC(=O)[C@@H](NC(=O)CNC(=O)[C@H](CCC(=O)O)NC(=O)C(C)(C)NC(=O)[C@@H](N)Cc1ccc(O)cc1)[C@@H](C)O)[C@@H](C)O)[C@@H](C)CC)[C@@H](C)CC)C(=O)N[C@@H](CCC(=O)O)C(=O)NCC(=O)NCC(=O)N1CCC[C@H]1C(=O)N[C@@H](CO)C(=O)N[C@@H](CO)C(=O)NCC(N)=O` [Example 270] (H-Y[Aib]EGTFTSDYSILLDKK([AEEA-AEEA-γGlu-C18 diacid])AQ[Aib]EFIEYLIEGGPSSG-NH2; N-terminus assumed), the EC50 in assay [1] came to 0.328 nM; in assay [5], 0.128 nM. For the same compound, the Ki was 0.117 nM in assay [2], 8.27 nM in assay [3] and greater than 1190 nM in assay [4].
The matching figures for `CC[C@H](C)[C@H](NC(=O)[C@H](CC(C)C)NC(=O)[C@H](Cc1ccc(O)cc1)NC(=O)[C@H](CCC(=O)O)NC(=O)[C@@H](NC(=O)[C@H](Cc1ccccc1)NC(=O)[C@H](CCC(=O)O)NC(=O)C(C)(C)NC(=O)[C@H](CCC(N)=O)NC(=O)[C@H](C)NC(=O)[C@H](CCCCNC(=O)COCCOCCNC(=O)COCCOCCNC(=O)CC[C@H](NC(=O)CCCCCCCCCCCCCCCCC(=O)O)C(=O)O)NC(=O)[C@H](CCCCN)NC(=O)[C@H](CC(=O)O)NC(=O)[C@H](CC(C)C)NC(=O)[C@H](CC(C)C)NC(=O)[C@@H](NC(=O)[C@H](CO)NC(=O)[C@H](Cc1ccc(O)cc1)NC(=O)[C@H](CC(=O)O)NC(=O)[C@H](CO)NC(=O)[C@@H](NC(=O)[C@H](Cc1ccccc1)NC(=O)[C@@H](NC(=O)CNC(=O)[C@H](CCC(=O)O)NC(=O)C(C)(C)NC(=O)[C@@H](N)Cc1ccc(O)cc1)[C@@H](C)O)[C@@H](C)O)[C@@H](C)CC)[C@@H](C)CC)C(=O)N[C@@H](CCC(=O)O)C(=O)NCC(=O)NCC(N)=O` [Example 271] (H-Y[Aib]EGTFTSDYSILLDKK([AEEA-AEEA-γGlu-C18 diacid])AQ[Aib]EFIEYLIEGG-NH2): 0.334 nM, 0.0352 nM, 0.107 nM, 5.09 nM and greater than 1150 nM.
Regarding `CC[C@H](C)[C@H](NC(=O)[C@H](CC(C)C)NC(=O)[C@H](Cc1ccc(O)cc1)NC(=O)[C@H](CCC(=O)O)NC(=O)[C@@H](NC(=O)[C@H](Cc1ccccc1)NC(=O)[C@H](C)NC(=O)C(C)(C)NC(=O)[C@H](CCC(N)=O)NC(=O)[C@H](C)NC(=O)[C@H](CCCCNC(=O)COCCOCCNC(=O)COCCOCCNC(=O)CC[C@H](NC(=O)CCCCCCCCCCCCCCCCC(=O)O)C(=O)O)NC(=O)[C@H](CCCCN)NC(=O)[C@H](CC(=O)O)NC(=O)[C@H](CC(C)C)NC(=O)[C@H](CC(C)C)NC(=O)[C@@H](NC(=O)[C@H](CO)NC(=O)[C@H](Cc1ccc(O)cc1)NC(=O)[C@H](CC(=O)O)NC(=O)[C@H](CO)NC(=O)[C@@H](NC(=O)[C@H](Cc1ccccc1)NC(=O)[C@@H](NC(=O)CNC(=O)[C@H](CCC(=O)O)NC(=O)C(C)(C)NC(=O)[C@@H](N)Cc1ccc(O)cc1)[C@@H](C)O)[C@@H](C)O)[C@@H](C)CC)[C@@H](C)CC)C(=O)N[C@@H](C)C(=O)NCC(=O)NCC(N)=O` [Example 273] (H-Y[Aib]EGTFTSDYSILLDKK([AEEA-AEEA-γGlu-C18 diacid])AQ[Aib]AFIEYLIAGG-NH2), the EC50 in assay [1] was determined as 0.079 nM; in assay [5], 0.0352 nM. For the same compound, the Ki in assay [2] was determined as 0.0698 nM; in assay [3], 1.13 nM; in assay [4], 724 nM.
The matching figures for `CC[C@H](C)[C@H](NC(=O)[C@H](CC(C)C)NC(=O)[C@H](Cc1ccc(O)cc1)NC(=O)[C@H](CCC(=O)O)NC(=O)[C@@H](NC(=O)[C@H](Cc1ccccc1)NC(=O)[C@H](C)NC(=O)[C@H](CCC(N)=O)NC(=O)[C@H](CCC(N)=O)NC(=O)[C@H](C)NC(=O)[C@H](CCCCNC(=O)COCCOCCNC(=O)COCCOCCNC(=O)CC[C@H](NC(=O)CCCCCCCCCCCCCCCCC(=O)O)C(=O)O)NC(=O)[C@H](CCCCN)NC(=O)[C@H](CC(=O)O)NC(=O)[C@H](CC(C)C)NC(=O)[C@H](CC(C)C)NC(=O)[C@@H](NC(=O)[C@H](CO)NC(=O)[C@H](Cc1ccc(O)cc1)NC(=O)[C@H](CC(=O)O)NC(=O)[C@H](CO)NC(=O)[C@@H](NC(=O)[C@H](Cc1ccccc1)NC(=O)[C@@H](NC(=O)CNC(=O)[C@H](CCC(=O)O)NC(=O)C(C)(C)NC(=O)[C@@H](N)Cc1ccc(O)cc1)[C@@H](C)O)[C@@H](C)O)[C@@H](C)CC)[C@@H](C)CC)C(=O)N[C@@H](CCC(=O)O)C(=O)NCC(=O)NCC(N)=O` [Example 294] (H-Y[Aib]EGTFTSDYSILLDKK([AEEA-AEEA-γGlu-C18 diacid])AQQAFIEYLIEGG-NH2): 0.183 nM, 0.185 nM, 0.205 nM, 2.92 nM and 629 nM.
In the case of `CC[C@H](C)[C@H](NC(=O)[C@H](CC(C)C)NC(=O)[C@H](Cc1ccc(O)cc1)NC(=O)[C@H](CCC(=O)O)NC(=O)[C@@H](NC(=O)[C@H](Cc1ccccc1)NC(=O)[C@H](C)NC(=O)[C@H](Cc1c[nH]cn1)NC(=O)[C@H](CCC(N)=O)NC(=O)[C@H](C)NC(=O)[C@H](CCCCNC(=O)COCCOCCNC(=O)COCCOCCNC(=O)CC[C@H](NC(=O)CCCCCCCCCCCCCCCCC(=O)O)C(=O)O)NC(=O)[C@H](CCCCN)NC(=O)[C@H](CC(=O)O)NC(=O)[C@H](CC(C)C)NC(=O)[C@H](CC(C)C)NC(=O)[C@@H](NC(=O)[C@H](CO)NC(=O)[C@H](Cc1ccc(O)cc1)NC(=O)[C@H](CC(=O)O)NC(=O)[C@H](CO)NC(=O)[C@@H](NC(=O)[C@H](Cc1ccccc1)NC(=O)[C@@H](NC(=O)CNC(=O)[C@H](CCC(=O)O)NC(=O)C(C)(C)NC(=O)[C@@H](N)Cc1ccc(O)cc1)[C@@H](C)O)[C@@H](C)O)[C@@H](C)CC)[C@@H](C)CC)C(=O)N[C@@H](CCC(=O)O)C(=O)NCC(=O)NCC(N)=O` [Example 295] (H-Y[Aib]EGTFTSDYSILLDKK([AEEA-AEEA-γGlu-C18 diacid])AQHAFIEYLIEGG-NH2), the figures for the EC50 in assay [1] and in assay [5] were 0.281 nM and 0.116 nM, respectively. The inhibition constant Ki is 0.181 nM in assay [2], 4.12 nM in assay [3] and greater than 1000 nM in assay [4].

The values above are taken from patent US12252524B2, “GIP/GLP1 co-agonist compounds” (Eli Lilly and Company, priority 2018, dated 2025).
